Experiments:
Botrytis cinerea = assay: Activity against gray mold on bell pepper leaves caused by Botrytis cinerea, protective application; format: in vivo; conditions: 250 ppm active compound, sprayed to runoff, bell pepper seedlings, inoculated next day, assessed after 5 days; untreated plants 90% infected
Method: The active compounds were prepared separately as a stock solution with 0.25% by weight of active compound in acetone or DMSO. 1% by weight of the emulsifier Uniperol® EL (wetting agent having emulsifying and dispersing action based on ethoxylated alkyl-phenols) was added to this solution. The stock solutions of the active compounds were diluted with water to the desired concentration. 1) Activity Against Gray Mold on Bell Pepper Leaves Caused by Botrytis cinerea, Protective Application […] The next day, the treated plants were inoculated with a spore suspension of Botrytis cinerea, this contained 1.7×10^6 spores/ml in a 2% strength aqueous biomalt solution. The test plants were then placed in a climate-chamber at 22-24° C. and high atmospheric humidity.

[1] = test system: Pyrenophora [syn. Drechslera] teres; assay: Activity against net blotch of barley caused by Pyrenophora teres; format: in vivo; conditions: 250 ppm active compound, sprayed to runoff, barley seedlings, inoculated 24 hours after drying, assessed after 6 days; untreated plants 80% infected
Method: The active compounds were prepared separately as a stock solution with 0.25% by weight of active compound in acetone or DMSO. 1% by weight of the emulsifier Uniperol® EL (wetting agent having emulsifying and dispersing action based on ethoxylated alkyl-phenols) was added to this solution. The stock solutions of the active compounds were diluted with water to the desired concentration. 4) Activity Against Net Blotch of Barley Caused by Pyrenophora teres […] Drechslera] teres, the causative agent of net blotch. The test plants were subsequently placed in a greenhouse at temperatures of between 20 and 24° C. and a relative atmospheric humidity of 95 to 100%. After 6 days, the extent of development of the disease was determined visually in % of infection of the total leaf area.

| SMILES | extent of the fungal infection on the leaves determined visually in % (Botrytis cinerea) | melting point [°C] | extent of development of the disease determined visually in % of infection of the total leaf area [1] [%] |
| --- | --- | --- | --- |
| C[C@H](Nc1nc(C(N)=S)nc(Cl)c1-c1c(F)cc(F)cc1F)C(F)(F)F [Compound I-2, (S)-4-chloro-6-(2,2,2-trifluoro-1-methylethylamino)-5-(2,4,6-trifluorophenyl)pyrimidine-2-thiocarbamide] | not infected |  |  |
| CC(C)Nc1nc(C(N)=S)nc(Cl)c1-c1c(F)cccc1Cl [Compound I-3] | not infected |  |  |
| CC(C)Nc1nc(C(N)=S)nc(Cl)c1-c1c(F)cc(F)cc1F [Compound I-4] | not infected | 145 to 149 |  |
| CCC(C)Nc1nc(C(N)=S)nc(Cl)c1-c1c(F)cccc1Cl (stereo not drawn) [Compound I-8, 4-sec-butylamino-6-chloro-5-(2-chloro-6-fluorophenyl)pyrimidine-2-thiocarbamide] | not infected | 147 to 150 |  |
| CCN(CC)c1nc(C(N)=S)nc(Cl)c1-c1c(F)cc(F)cc1F [Compound I-19] |  | 55 to 58 | 10 |
| Cc1nc(C(N)=S)nc(NC(C)C)c1-c1c(F)cc(F)cc1F [Compound I-23] |  | 158 |  |

Reference: patent US20070129380A1
